Patent US12643867B2, “Compositions and uses thereof” (University of Virginia Patent Foundation, priority 2017, dated 2026)

What was measured:
[1] = target: T1, DGKE (Diacylglycerol kinase epsilon) (Homo sapiens, UniProt P52429); assay: SILAC LC-MS ATP acyl phosphate probe competition, recombinant DGK-HEK293T lysates; type: binding; conditions: site DAGKa (K392); membrane fraction; ATP 1 mM; Ketanserin, Ritanserin 100 μM; RF001 1 mM
T1 construct: expressed in transfected cells; host or cells: SILAC HEK293T, membrane fraction
T1 sequence (P52429 1-567): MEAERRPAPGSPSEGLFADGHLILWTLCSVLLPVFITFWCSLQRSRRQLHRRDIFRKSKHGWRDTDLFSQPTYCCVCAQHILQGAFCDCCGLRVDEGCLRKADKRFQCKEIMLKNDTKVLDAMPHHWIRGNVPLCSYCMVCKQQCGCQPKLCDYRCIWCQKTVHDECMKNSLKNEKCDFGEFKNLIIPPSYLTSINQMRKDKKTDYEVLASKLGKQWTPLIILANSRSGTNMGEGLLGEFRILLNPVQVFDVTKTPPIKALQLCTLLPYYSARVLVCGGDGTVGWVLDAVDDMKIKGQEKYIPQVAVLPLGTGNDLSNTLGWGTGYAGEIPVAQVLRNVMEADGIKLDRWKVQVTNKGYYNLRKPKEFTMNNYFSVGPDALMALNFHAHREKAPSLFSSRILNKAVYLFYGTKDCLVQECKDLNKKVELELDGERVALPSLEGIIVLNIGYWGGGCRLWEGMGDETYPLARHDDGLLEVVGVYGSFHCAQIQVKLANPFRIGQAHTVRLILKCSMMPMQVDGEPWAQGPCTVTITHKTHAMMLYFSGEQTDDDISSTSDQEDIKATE
Source text: Recombinant DGK proteins were produced by transient transfection of HEK293T cells with recombinant DNA. pDONR223-DGKK was a gift from William Hahn & David Root (Addgene plasmid #23487). pCSF107mT-GATEWAY-3′-FLAG was a gift from Todd Stukenberg (Addgene plasmid #67619). pCSF107mT-DGKK-FLAG construct was generated by recombination of the Addgene plasmids using the Gateway cloning system (Invitrogen). All other vectors were gifted to Dr. Kevin Lynch (University of Virginia, School of Medicine) by Dr. Kaoru Goto (Yamagata University, School of Medicine) and Dr. Fumio Sakane (Chiba University) and were kindly shared with us: pcDNA3-FLAG-DGKA (rat), pCMV-Tag2B-FLAG-DGKQ (human), pcDNA3-DGKE-3×Flag (human), and pCMV-SPORT6-HA-DGKZ (human). HEK293T cells were plated at a concentration of 400,000 cells in complete DMEM and grown to 50-60% confluency. A polyethyleneimine (PEI) stock solution was prepared (1 mg/mL, pH 7.4) and filter sterilized. Serum-free DMEM (600 μL) was mixed gently with 2.6 μg DNA and 20 μL of sterile PEI (1 mg/mL, pH 7.4) in a sterile microfuge tube. Mixtures were incubated for 30 min at 25° C. The mixture was then added drop-wise to each 10 cm^2 plate, rocked back and forth to mix, and placed back in the incubator. Cell pellets were harvested after two full days of growth, snap-frozen in liquid N2, and stored at −80° C. until use. Recombinant proteins were produced by transient transfection in SILAC HEK293T cells using the procedure described above, except that cells were plated at a concentration of 1×10^6 cells per 10 cm^2 plate and grown to ˜70% confluency prior to introducing transfection mixture.
Cell pellets were resuspended in kinase buffer (Dulbecco's PBS (DPBS, Hyclone), 20 mM MgCl2, EDTA-free protease inhibitors (Pierce)) and then lysed by sonication (3×1 sec pulse, 20% amplitude). The cell lysates were then subjected to centrifugation (100,000×g, 45 min at 4° C.) to isolate the cytosolic fraction in the supernatant and the membrane fraction as a pellet. […] Protein concentrations were measured using the Bio-Rad DC protein assay. […]

Gamma (DGK gamma) = Gamma (DGK gamma) (Homo sapiens, UniProt P49619); assay: DGK isoform % Activity screen; type: biochemical
Gamma (DGK gamma), sequence (P49619 whole entry, canonical isoform): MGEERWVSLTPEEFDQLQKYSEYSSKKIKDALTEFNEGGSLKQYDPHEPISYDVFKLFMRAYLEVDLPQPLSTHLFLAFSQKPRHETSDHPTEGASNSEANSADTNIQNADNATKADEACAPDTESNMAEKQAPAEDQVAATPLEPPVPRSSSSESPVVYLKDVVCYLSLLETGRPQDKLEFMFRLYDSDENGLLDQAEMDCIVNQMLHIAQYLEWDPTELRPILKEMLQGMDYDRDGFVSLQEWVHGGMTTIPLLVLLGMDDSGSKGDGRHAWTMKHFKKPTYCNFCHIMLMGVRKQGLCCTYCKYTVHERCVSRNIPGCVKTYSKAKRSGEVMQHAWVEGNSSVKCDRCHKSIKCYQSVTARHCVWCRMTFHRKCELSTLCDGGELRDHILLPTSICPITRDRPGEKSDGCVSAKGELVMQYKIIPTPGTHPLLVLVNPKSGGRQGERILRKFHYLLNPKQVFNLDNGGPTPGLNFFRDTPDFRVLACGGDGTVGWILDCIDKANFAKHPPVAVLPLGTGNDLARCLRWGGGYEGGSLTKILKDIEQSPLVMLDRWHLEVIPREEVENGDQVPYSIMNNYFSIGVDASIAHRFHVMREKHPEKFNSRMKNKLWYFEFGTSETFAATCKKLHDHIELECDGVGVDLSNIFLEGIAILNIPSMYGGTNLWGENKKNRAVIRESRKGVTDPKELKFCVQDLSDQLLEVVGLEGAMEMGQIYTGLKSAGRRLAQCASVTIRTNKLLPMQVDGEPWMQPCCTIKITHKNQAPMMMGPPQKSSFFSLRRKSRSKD

Compound | SILAC ratio, DGKE DAGKa probe-modified peptide [1] | activity at 100 µM (Gamma (DGK gamma)) [%] | activity at 1000 µM (Gamma (DGK gamma); read-out: 1 mM % Activity, Gamma) [%]
O=C(c1ccc(F)cc1)C1CCN(CCn2c(=O)[nH]c3ccccc3c2=O)CC1 [Ketanserin] | 1.3 | 24 | 
Cc1nc2sccn2c(=O)c1CCN1CCC(=C(c2ccc(F)cc2)c2ccc(F)cc2)CC1 [Ritanserin] | 1.0 | 55 | 
Fc1ccc(C(=C2CCNCC2)c2ccc(F)cc2)cc1 [RF001, 4-(Bis(4-fluorophenyl)methylene) piperidine] | 0.7 | 82 | 5
